{"source": "patent US8134010B2", "about": "“Thiazole-based nitric oxide donors having aryl substituent(s) and uses thereof” (priority 2004, dated 2012)", "key": {"isolated rat aorta": {"test_system": "isolated rat aorta", "experiment": "Chronic administration of Pet-120 and vasoactivity determination in isolated aorta", "type": "in vivo", "conditions": "Pet-120 for 7 days", "experimental": "Male Sprague Dawley rats (250 to 300 grams) were used and housed under constant temperature and humidity conditions. The animals were anesthetized with intraperitoneal injection of ketamine and xylazine combination (50 and 10 mg/kg, respectively). An osmotic miniature pump (ALZA Corp., Palo Alto, Calif.) delivering constant volume (10 μl/hour) of vehicle and Pet-120 was connected to one of the intravenous catheters. The animals received 200 μg/hour for 7 days. As control, a similar number of animals underwent the same surgical procedure and received the vehicle alone (10 μl/hour of a solution consisting of 30% ethanol and 30% propylene glycol in sterile distilled water for injection). At the end of the infusion periods the rats were anesthetized by the combination described above. The abdomen was opened by midline incision and the thoracic aorta was isolate, washed and cleaned from the surrounding tissues.\nThe aorta of the rats which were treated as described hereinabove was cut into rings of 4-5 mm long each. The rings were mounted under 1 g tension in organ bath containing 30 ml of Krebs-Hansliet solution (pH 7.4) of the following composition (mM): NaCl […], CaCl2 1.6, MgSO4 1.2, KH2PO4 1.2, NaHCO3 25.0, D-glucose 11.1. At 37 C° and gassed with 95% O2- 5% CO2. […]"}, "[1]": {"test_system": "cyclic-GMP in isolated aorta of rats", "experiment": "Induction of in vivo nitrate tolerance (cGMP in isolated aorta of rats pre-treated in vivo)", "parameters": "species or system rat", "conditions": "rats pre-treated in vivo with the same compound", "experimental": "For c-GMP levels and tolerance development, the rat's thoracic aorta was isolated after exposure to the tested compound in vivo, and measured as described above in the in vitro assays.\nMale Sprague Dawley rats (220 to 250 grams) were housed under constant temperature and humidity conditions. Light was maintained at a 12/12 light dark cycle. Except for 12 hours before the experiment, when food fasting was initiated, all rats had free access to standard rat pellet diet and tap water. The animals were anesthetized by intraperitoneal injection of ketamine and xylazine combination (50 and 10 milligram per kilogram, respectively). […] The catheters were filled with normal saline solution containing 1000 IU/ml of heparin and plugged with a metal pin. Catheters were externalized to the back of the neck region and secured by a polyester felt disk.\nAfter implantation, the rats were individually housed until they regained their preoperative weight and appeared healthy (3 to 4 days post-operation). At this time point (day 0), an osmotic mini-pump (Alza Corp., Palo Alto, Calif.) delivering constant volume (10 μl/hour) of vehicle or drug was connected to one of the intravenous catheters.\nFor inducing tolerance to the tested NO-donor according to the present invention, the animals received 200 μg/hour of the tested compound for 16 hours (short-term-induced tolerance). A similar number of animals were processed by the same surgical procedure and received the vehicle alone (10 μl/hour of a solution consisting of 30% ethanol and 30% propylene glycol in sterile distilled water for injection).\nAt the end of the infusion periods used for the development of tolerance (16 hour), the rats were anesthetized as described above, the two catheters were externalized and the delivering catheters were disconnected from the mini-pump. The abdomen was opened by midline incision and the thoracic aorta were isolated, washed and cleaned from the surrounding tissues. […]"}, "Sprague-Dawley rats [2]": {"test_system": "Sprague-Dawley rats", "experiment": "Effect of Pet-120 on mean arterial blood pressure (MABP) after intravenous bolus infusion", "type": "in vivo, rat", "conditions": "50 micrograms Pet-120 after 10 micrograms phenylephrine", "experimental": "Male Sprague-Dawley rats weighing 310 grams at the beginning of the experiments were anesthetized with ketamine and xylazine (50 and 10 mg/kg, respectively), and an osmotic miniature pump (model 2002; ALZA Co filled with L-NAME) was canulated to right jugular vien (RJV) and implanted subcutaneously at the dorsum of the neck. L-NAME was infusion from ALZA miniature pump at a rate of 500 ng/minute for 24 hours. One day after the rat was anesthetized again with ketamine and xylazine and the both left jugular vein (LJV) and right common carotid (for MABP monitoring) was canulated. After the rats stabilized, Pet-120 was administered through the LJV (50 μg).\nThe efficacy of Pet-120, an exemplary NO-donating compound according to some embodiments of the present invention, was assayed as presented hereinabove in animals which were treated with phenylephrine so as to heighten their mean arterial blood pressure."}, "Sprague-Dawley rats [3]": {"test_system": "Sprague-Dawley rats", "experiment": "Effects of Pet-120 on the endothelial dysfunction of angiotensin II induced hypertension in rats", "type": "in vivo, rat", "conditions": "Pet-120 with Ang II for 14 days; aortic rings, acetylcholine curves", "experimental": "Male Sprague-Dawley rats were housed in separate cages and maintained in a temperature regulated room on a 12-hour light/dark cycle. Throughout the experiments, animals had free access to water and standard rat chow. Rats weighing 270 to 310 grams at the beginning of the experiments were anesthetized with ketamine and xylazine (50 and 10 mg/kg, respectively), and an osmotic miniature pump (model 2002; Alza Co) was implanted subcutaneously at the dorsum of the neck. Rats were selected at random and divided into three groups. The first group used as control and received the vehicle alone. The second group received angiotensin II (Ang II, Sigma Chemical Co) infusion (n=3) at a rate of 80 ng/minute or vehicle (n=2; for a period of 14 days. The third group (n=3) received both Ang II (as the second group) and Pet-120 at rate 167 ng/minute for 14 days. At the end of the treatment, rats were anesthetized with ketamine and xylazine (50 and 10 mg/kg, respectively), and both the osmotic pumps and the catheters were removed, and the animals were allowed to recover for 24 hours before initiation of the experiment.\nThereafter a section of the thoracic aorta (with endothelium) was removed from the rats, dissected free of fat and connective tissue in oxygenated Krebs-Hanseliet solution (pH 7.4). […]"}}, "note": "Entries after “also recorded” stand apart in the source; their conditions may differ."}
{"smiles": "Cc1nc(-c2ccc([N+](=O)[O-])cc2)sc1CCO[N+](=O)[O-]", "note": "[Pet-120, 4-Methyl-5-(2-nitrooxy-ethyl)-2-(4-nitro-phenyl)-thiazole]", "values": [{"measurement": "tolerance induction after daily in-vivo administration over 7 days versus single dose (vasorelaxation in isolated aorta)", "setting": "isolated rat aorta", "result": "absence of tolerance inducement; also recorded: not to induce tolerance"}, {"measurement": "tolerance induction by cyclic-GMP accumulation in aorta of rats pre-treated in vivo", "setting": "[1]", "result": "absence of tolerance induction"}, {"measurement": "effect on mean arterial blood pressure (MABP)", "setting": "Sprague-Dawley rats [2]", "result": "reducing the MABP to its original levels"}, {"measurement": "vasorelaxation after Ang II induced hypertension", "setting": "Sprague-Dawley rats [3]", "result": "notable capacity to induce vasorelaxation"}]}
